Measurements reported in US20210347727A1 (BLADE THERAPEUTICS, INC., priority 2017, published 2021).

Key:
Human Calpain 1/NS1 = biological target: T1, Human Calpain 1/NS1 (Homo sapiens, UniProt P07384); assay: Biochemical inhibition of calpain 1, continuous fluorescence (FRET substrate) assay; conditions: mean; read-out: Human Calpain 1/NS1 IC50 (nM)_MEAN
T1 sequence (P07384 1-714): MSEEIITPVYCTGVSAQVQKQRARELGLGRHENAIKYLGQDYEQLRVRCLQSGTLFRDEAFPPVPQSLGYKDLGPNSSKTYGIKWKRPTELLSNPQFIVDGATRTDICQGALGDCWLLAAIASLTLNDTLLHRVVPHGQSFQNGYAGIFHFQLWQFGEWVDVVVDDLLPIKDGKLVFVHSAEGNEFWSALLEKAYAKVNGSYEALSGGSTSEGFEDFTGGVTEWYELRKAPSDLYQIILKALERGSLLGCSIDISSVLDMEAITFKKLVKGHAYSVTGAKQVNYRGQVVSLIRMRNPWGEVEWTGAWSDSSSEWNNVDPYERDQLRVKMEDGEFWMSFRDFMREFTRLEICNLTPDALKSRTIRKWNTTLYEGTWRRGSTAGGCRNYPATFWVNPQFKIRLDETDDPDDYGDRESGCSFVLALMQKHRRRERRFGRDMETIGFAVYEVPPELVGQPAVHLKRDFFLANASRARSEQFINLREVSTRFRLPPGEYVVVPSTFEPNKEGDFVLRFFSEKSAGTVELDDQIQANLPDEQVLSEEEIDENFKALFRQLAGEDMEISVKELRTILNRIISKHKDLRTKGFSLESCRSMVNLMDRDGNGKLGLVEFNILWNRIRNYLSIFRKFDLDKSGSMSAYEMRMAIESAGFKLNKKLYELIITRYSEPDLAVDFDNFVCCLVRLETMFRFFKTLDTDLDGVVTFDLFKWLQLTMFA
T1 sequence (P04632 1-268 partner): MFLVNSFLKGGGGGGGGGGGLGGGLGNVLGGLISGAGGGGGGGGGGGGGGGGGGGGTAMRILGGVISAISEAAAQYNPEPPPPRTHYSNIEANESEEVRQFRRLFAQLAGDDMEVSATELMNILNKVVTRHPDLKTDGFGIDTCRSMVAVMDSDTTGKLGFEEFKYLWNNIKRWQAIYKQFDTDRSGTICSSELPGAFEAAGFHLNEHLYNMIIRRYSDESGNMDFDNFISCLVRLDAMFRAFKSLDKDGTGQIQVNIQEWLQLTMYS
Method in brief: (§1)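 Calpains preincubated with inhibitor at 25 °C in 50 mM Tris pH 7.5, 100 mM NaCl, 1 mM DTT; reaction started with 5-FAM/QXL520 FRET peptide plus CaCl2 for activation. Fluorescence (ex 490/em 520 nm) followed 10 min; rates from 1–5 min slopes, IC50 by 4-parameter logistic fit.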

Human Calpain 2/NS1 = biological target: T2, Human Calpain 2/NS1 (Homo sapiens, UniProt P17655); assay: Biochemical inhibition of calpain 2, continuous fluorescence (FRET substrate) assay; conditions: mean; read-out: Human Calpain 2/NS1 1C50 [sic] (nM)_MEAN
T2 sequence (P17655 1-700): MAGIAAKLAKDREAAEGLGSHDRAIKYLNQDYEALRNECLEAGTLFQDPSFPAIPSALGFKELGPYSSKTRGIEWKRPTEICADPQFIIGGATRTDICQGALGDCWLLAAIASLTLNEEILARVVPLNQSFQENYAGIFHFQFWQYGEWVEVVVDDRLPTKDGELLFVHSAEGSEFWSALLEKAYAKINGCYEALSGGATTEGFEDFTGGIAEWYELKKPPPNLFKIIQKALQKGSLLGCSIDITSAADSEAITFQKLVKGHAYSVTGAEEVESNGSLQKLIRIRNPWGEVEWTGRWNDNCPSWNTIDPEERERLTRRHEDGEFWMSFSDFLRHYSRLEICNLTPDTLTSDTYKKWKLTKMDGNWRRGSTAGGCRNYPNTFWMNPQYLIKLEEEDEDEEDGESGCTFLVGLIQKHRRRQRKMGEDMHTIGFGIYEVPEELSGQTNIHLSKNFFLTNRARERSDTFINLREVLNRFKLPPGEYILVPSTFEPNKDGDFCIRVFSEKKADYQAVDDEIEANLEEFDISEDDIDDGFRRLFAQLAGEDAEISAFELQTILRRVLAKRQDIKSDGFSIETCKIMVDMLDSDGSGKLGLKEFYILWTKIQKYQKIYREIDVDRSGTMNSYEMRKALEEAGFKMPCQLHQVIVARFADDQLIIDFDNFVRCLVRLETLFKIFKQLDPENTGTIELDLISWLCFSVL
T2 sequence (P04632 1-268 partner): T1 sequence (P04632 1-268 partner)
Method in brief: as §1

Human Calpain 9/NS1 = biological target: T3, Human Calpain 9/NS1 (Homo sapiens, UniProt O14815); assay: Biochemical inhibition of calpain 9, continuous fluorescence (FRET substrate) assay; conditions: mean; read-out: Human Calpain 9/NS1 IC50 (nM)_MEAN
T3 sequence (O14815 1-690): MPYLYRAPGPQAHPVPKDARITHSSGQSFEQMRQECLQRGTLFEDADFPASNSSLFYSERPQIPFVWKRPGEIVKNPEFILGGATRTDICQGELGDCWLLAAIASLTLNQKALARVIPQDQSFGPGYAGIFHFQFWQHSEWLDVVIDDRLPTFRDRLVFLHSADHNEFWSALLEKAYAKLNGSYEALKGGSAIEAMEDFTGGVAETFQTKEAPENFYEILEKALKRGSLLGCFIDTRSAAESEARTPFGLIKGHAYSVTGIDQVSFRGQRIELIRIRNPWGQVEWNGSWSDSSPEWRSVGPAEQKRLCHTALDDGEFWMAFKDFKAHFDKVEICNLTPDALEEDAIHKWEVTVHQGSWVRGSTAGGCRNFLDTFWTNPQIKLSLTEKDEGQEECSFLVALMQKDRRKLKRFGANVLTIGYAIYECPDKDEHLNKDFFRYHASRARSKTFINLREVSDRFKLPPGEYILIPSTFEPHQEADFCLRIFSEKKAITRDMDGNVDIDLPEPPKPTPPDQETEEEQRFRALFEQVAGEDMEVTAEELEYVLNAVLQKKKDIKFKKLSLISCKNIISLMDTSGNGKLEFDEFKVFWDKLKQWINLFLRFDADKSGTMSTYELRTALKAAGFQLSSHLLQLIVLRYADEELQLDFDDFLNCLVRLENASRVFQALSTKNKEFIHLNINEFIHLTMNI
T3 sequence (P04632 1-268 partner): T1 sequence (P04632 1-268 partner)
Method in brief: as §1

[1] = tested on: calpain activity in SH-SY5Y cells (Spectrin); assay: SH-SY5Y Spectrin cellular calpain inhibition; assay type: cell-based
[2] = tested on: calpain activity in SH-SY5Y cells; assay: SH-SY5Y cellular calpain activity, Suc-LLVY-AMC fluorescence assay; assay type: cell-based; conditions: Suc-LLVY-AMC substrate
Method in brief: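 SH-SY5Y cells (1% serum, seeded overnight at 37 C) pre-incubated 30 min with serially diluted compound, then given 100 uM cell-permeable Suc-LLVY-AMC. AMC fluorescence followed continuously on FLIPR; slopes taken as calpain activity, and IC50 from 4-parameter logistic fit of slope versus log concentration.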

SMILES | IC50 (Human Calpain 1/NS1) | IC50 (Human Calpain 2/NS1) | IC50 (Human Calpain 9/NS1) | IC50 [1] | IC50 [2]
NC(=O)C(=O)[C@H](Cc1ccccc1)NC(=O)c1c(Cl)cccc1Br [Compound 14, (S)—N-(4-AMINO-3,4-DIOXO-1-PHENYLBUTAN-2-YL)-2-BROMO-6-CHLOROBENZAMIDE] | < 3000 nM | < 3000 nM | < 3000 nM | 10 to 25 µM | < 10 µM
O=CC(Cc1ccccc1)NC(=O)c1c(C(F)(F)F)ccc(Cl)c1F (stereo not drawn) [Compound 38, 3-CHLORO-2-FLUORO-N-(1-OXO-3-PHENYLPROPAN-2-YL)-6-(TRIFLUOROMETHYL)BENZAMIDE] | < 3000 nM | < 3000 nM | < 3000 nM | < 10 µM | 10 to 25 µM
O=CC(Cc1ccccc1)NC(=O)c1cccc2c1Oc1ccccc1O2 (stereo not drawn) [Compound 48] | < 3000 nM | < 3000 nM | < 3000 nM | > 25 µM | > 25 µM
COc1ccc(F)c(C(=O)NC(C=O)Cc2ccccc2)c1Cl (stereo not drawn) [Compound 43, 2-CHLORO-6-FLUORO-3-METHOXY-N-(1-OXO-3-PHENYLPROPAN-2-YL)BENZAMIDE] | < 3000 nM | < 3000 nM | < 3000 nM | 10 to 25 µM | < 10 µM
NC(=O)C(=O)[C@H](Cc1ccccc1)NC(=O)c1ccc(F)cc1 [Compound 28, (S)—N-(4-AMINO-3,4-DIOXO-1-PHENYLBUTAN-2-YL)-4-FLUOROBENZAMIDE] | > 10000 nM | 3000 to 10000 nM | 3000 to 10000 nM | > 25 µM | < 10 µM
NC(=O)C(=O)C(Cc1ccccc1)NC(=O)c1cccc2c1Oc1ccccc1O2 (stereo not drawn) [Compound 7, N-(4-AMINO-3,4-DIOXO-1-PHENYLBUTAN-2-YL)DIBENZO[b,e][1,4]DIOXINE-1-CARBOXAMIDE] | < 3000 nM | < 3000 nM | < 3000 nM | 10 to 25 µM | > 25 µM
